# Laboratory results: patent US9765069B2, “Antimicrobial compounds” (OXFORD UNIVERSITY INNOVATION LIMITED, priority 2012, dated 2017)
# Assays:
# S1 = experiment: MIC determination (bacteria), strain S1; assay type: cell-based, S. aureus; details: 2-fold broth dilution; for MIC: Staphylococcus aureus
# Method: (§1) MIC determination (bacteria); MICs were determined based on Clinical and Laboratory Standards Institute (CLSI) methodology (Methods for dilution antimicrobial susceptibility tests for bacteria that grow aerobically; Approved Standard—seventh edition. 2006, M7-A7, CLSI, Wayne Pa.) by a 2-fold broth dilution technique in Mueller Hinton (pH7.4 Biorad). For S. pneumoniae, the medium was supplemented with 2.5% laked horse blood. For H. influenzae, the medium was haemophilus test medium (H.T.M.). Overnight cultures were diluted to obtain the final inoculum of 10^5 cfu/well. Incubation was 37° C. overnight in ambient air. The MIC was defined as the lowest concentration which inhibited all visual growth and expressed in μg/ml. For each bacterial species, all of the molecules were tested in the same experiment in order to give a head-to-head comparison.
# P9 = experiment: MIC determination (bacteria), strain P9; assay type: cell-based, S. pneumoniae; details: 2-fold broth dilution; for MIC: Streptococcus pneumoniae
# Method: as §1
# S4 = experiment: MIC determination (bacteria), strain S4; assay type: cell-based, S. aureus; details: 2-fold broth dilution; for MIC: Staphylococcus aureus
# Method: as §1
# [1] = tested on: S2 (S. aureus 2, MRSA in vivo); experiment: MIC determination (bacteria), strain S2; assay type: cell-based; details: 2-fold broth dilution; for MIC: Staphylococcus aureus, MRSA
# Method: as §1
# E2 = experiment: MIC determination (bacteria), strain E2; assay type: cell-based, enterococcus; details: 2-fold broth dilution; for MIC: Enterococcus
# Method: as §1
# P1 = experiment: MIC determination (bacteria), strain P1; assay type: cell-based, S. pneumoniae; details: 2-fold broth dilution; for MIC: Streptococcus pneumoniae
# Method: as §1
# P9B = experiment: MIC determination (bacteria), strain P9B; assay type: cell-based, S. pneumoniae; details: 2-fold broth dilution; for MIC: Streptococcus pneumoniae
# Method: as §1
# H4 = experiment: MIC determination (bacteria), strain H4; assay type: cell-based, H. influenzae; details: haemophilus test medium; for MIC: Haemophilus influenzae
# Method: as §1
# S26 = experiment: MIC determination (bacteria), strain S26; assay type: cell-based, S. aureus; details: 2-fold broth dilution; for MIC: Staphylococcus aureus
# Method: as §1
# H3 = experiment: MIC determination (bacteria), strain H3; assay type: cell-based, H. influenzae; details: haemophilus test medium; for MIC: Haemophilus influenzae
# Method: as §1
# E1 = experiment: MIC determination (bacteria), strain E1; assay type: cell-based, enterococcus; details: 2-fold broth dilution; for MIC: Enterococcus
# Method: as §1
# [2] = tested on: mammalian_red blood cell membrane; experiment: In vitro mammalian red blood cell membrane lysis activity; assay type: cell-based; details: Active or inactive at 100 μM
# Source text: (§2) These properties can be determined according to techniques that are well known in the art.
# [3] = tested on: human embryonic kidney 293 cells; experiment: in vitro toxicities against human embryonic kidney 293 cells; assay type: cell-based; details: human embryonic kidney 293 cells
# Source text: as §2
# [4] = tested on: human peripheral blood cells; experiment: in vitro toxicities human peripheral blood cells; assay type: cell-based; details: human peripheral blood cells
# Source text: as §2
# S. aureus membrane = experiment: In vitro activity in depolarization of S. aureus membrane; assay type: cell-based; details: read-out: DEP (IC50)
# Source text: as §2
Structure (SMILES),MIC S1 (S1; Table 2),MIC P9 (P9; Table 2),MIC S4 (S4; Table 2),MIC S2 ([1]; Table 2),MIC E2 (E2; Table 2),MIC P1 (P1; Table 2),MIC P9B (P9B; Table 2),MIC H4 (H4; Table 2 and its footnote f),MIC S26 (S26; Table 2),MIC H3 (H3; Table 2),MIC E1 (E1; Table 2),MIC S1 (S1; Table 1),MIC P9 (P9; Table 1),MIC S4 (S4; Table 1),MIC S2 ([1]; Table 1),MIC E2 (E2; Table 1),MIC P1 (P1; Table 1),MIC P9B (P9B; Table 1),MIC S26 (S26; Table 1),MIC H3 (H3; Table 1),further results
O=C1CCN(C(=O)c2ccccc2)C(=O)C1=C(O)CCCCC1CCCCC1 [19c],1 µg/mL,1 µg/mL,2 µg/mL,2 µg/mL,2 µg/mL,1 µg/mL,4 µg/mL,8 µg/mL,2 µg/mL,16 µg/mL,2 µg/mL,,,,,,,,,,
O=C1CCN(C(=O)c2ccccc2)C(=O)/C1=C(\O)CCc1ccc(-c2ccccc2C(F)(F)F)o1 [19e],4 µg/mL,2 µg/mL,4 µg/mL,4 µg/mL,2 µg/mL,2 µg/mL,8 µg/mL,16 µg/mL,4 µg/mL,>64 µg/mL,2 µg/mL,,,,,,,,,,
CCCCCCCC=CC(=O)N1C(=O)C(=C(C)O)C(=O)C1CC(C)C (stereo not drawn) [23a],,,,,,,,,,,,8 µg/mL,1 µg/mL,8 µg/mL,8 µg/mL,4 µg/mL,2 µg/mL,4 µg/mL,16 µg/mL,64 µg/mL,"RBC membrane lysis activity (active/inactive) [2]: Inactive^d; Hek293 (LD50, μM) [3]: 90.9 µM; PMBC (LD50, μM) [4]: 90.9 µM; MIC H4 (H4; Table 1): 4 µg/mL; IC50 (S. aureus membrane): 88 µM; MIC E1 (E1; Table 1): 8 µg/mL"
CCCCCCCC=CC(=O)N1C(=O)C(=C(O)CCC)C(=O)C1CC(C)C (stereo not drawn) [23b],,,,,,,,,,,,<0.06 µg/mL,0.12 µg/mL,0.25 µg/mL,0.25 µg/mL,<0.06 µg/mL,0.25 µg/mL,1 µg/mL,0.5 µg/mL,>64 µg/mL,"RBC membrane lysis activity (active/inactive) [2]: Inactive^d; Hek293 (LD50, μM) [3]: 90.9 µM; PMBC (LD50, μM) [4]: 90.9 µM; MIC H4 (H4; Table 1): 2 µg/mL; IC50 (S. aureus membrane): 49.5 µM; MIC E1 (E1; Table 1): 0.25 µg/mL"
CCCCCCCC=CC(=O)N1C(=O)C(=C(O)CCCCC)C(=O)C1CC(C)C (stereo not drawn) [23c],,,,,,,,,,,,0.25 µg/mL,<0.06 µg/mL,0.5 µg/mL,0.5 µg/mL,0.12 µg/mL,<0.06 µg/mL,2 µg/mL,0.5 µg/mL,>64 µg/mL,"RBC membrane lysis activity (active/inactive) [2]: Inactive^d; Hek293 (LD50, μM) [3]: 30.3 µM; PMBC (LD50, μM) [4]: 30.3 µM; IC50 (S. aureus membrane): 19.6 µM; MIC E1 (E1; Table 1): 0.25 µg/mL"
CCCCCCCCCCC(O)=C1C(=O)C(CCSC)N(C(C)=O)C1=O (stereo not drawn) [24a],,,,,,,,,,,,0.5 µg/mL,0.25 µg/mL,4 µg/mL,2 µg/mL,0.5 µg/mL,0.5 µg/mL,2 µg/mL,8 µg/mL,8 µg/mL,MIC H4 (H4; Table 1): 4 µg/mL; MIC E1 (E1; Table 1): 0.5 µg/mL
CCCCCC(O)=C1C(=O)C(CCSC)N(C(=O)C2CCCCC2)C1=O (stereo not drawn) [24d],,,,,,,,,,,,2 µg/mL,2 µg/mL,2 µg/mL,4 µg/mL,2 µg/mL,2 µg/mL,4 µg/mL,4 µg/mL,32 µg/mL,MIC H4 (H4; Table 1): 4 µg/mL; MIC E1 (E1; Table 1): 2 µg/mL
CCCCCCCCCCCCCC(O)=C1C(=O)CCN(C(=O)c2ccccc2)C1=O [25c],,,,,,,,,,,,2 µg/mL,1 µg/mL,1 µg/mL,2 µg/mL,1 µg/mL,1 µg/mL,8 µg/mL,4 µg/mL,>64 µg/mL,MIC H4 (H4; Table 1): 32 µg/mL; MIC E1 (E1; Table 1): 2 µg/mL
CCCCCCC(=O)N1CC(=O)C(=C(O)CC2CC3CCC2C3)C1=O (stereo not drawn) [27a],1 µg/mL,0.5 µg/mL,2 µg/mL,2 µg/mL,2 µg/mL,1 µg/mL,4 µg/mL,1 µg/mL,4 µg/mL,4 µg/mL,1 µg/mL,,,,,,,,,,"RBC membrane lysis activity (active/inactive) [2]: Inactive^d; Hek293 (LD50, μM) [3]: 90.9 µM; PMBC (LD50, μM) [4]: 90.9 µM; IC50 (S. aureus membrane): > 100 µM"
CCCCCCC(=O)N1CC(=O)C(=C(O)CC2CCCCC2)C1=O [27b],2 µg/mL,0.5 µg/mL,4 µg/mL,4 µg/mL,2 µg/mL,1 µg/mL,2 µg/mL,0.5 µg/mL,4 µg/mL,4 µg/mL,2 µg/mL,,,,,,,,,,
CCCC(=O)N1CC(=O)C(=C(O)CC23CC4CC(CC(C4)C2)C3)C1=O [27j],16 µg/mL,4 µg/mL,16 µg/mL,16 µg/mL,8 µg/mL,4 µg/mL,4 µg/mL,4 µg/mL,16 µg/mL,16 µg/mL,8 µg/mL,,,,,,,,,,
CCCCCCC(=O)N1CC(=O)/C(=C(/O)CO[C@H]2C[C@@H](C)CC[C@@H]2C(C)C)C1=O [27n],,,,,,,,,,,,,,,,,,,,,MIC (S1; Table 2): > 64 µg/mL; MIC (P9; Table 2): 0.5 µg/mL; MIC (S4; Table 2): > 64 µg/mL; MIC ([1]; Table 2): > 64 µg/mL; MIC (E2; Table 2): 2 µg/mL; MIC (P1; Table 2): 0.5 µg/mL; MIC (P9B; Table 2): 8 µg/mL; MIC (H4; Table 2 and its footnote f): 2 µg/mL; MIC (S26; Table 2): > 64 µg/mL; MIC (H3; Table 2): > 64 µg/mL; MIC (E1; Table 2): 8 µg/mL
CCCC(=O)N1CC(=O)C(=C(O)CCCCC2CCCCC2)C1=O [27o],4 µg/mL,0.5 µg/mL,16 µg/mL,4 µg/mL,2 µg/mL,0.5 µg/mL,4 µg/mL,2 µg/mL,8 µg/mL,8 µg/mL,4 µg/mL,,,,,,,,,,
Cc1ccccc1C(=O)N1CC(=O)C(=C(O)CCCCC2CCCCC2)C1=O [27s],16 µg/mL,2 µg/mL,16 µg/mL,16 µg/mL,8 µg/mL,2 µg/mL,16 µg/mL,4 µg/mL,16 µg/mL,32 µg/mL,8 µg/mL,,,,,,,,,,
CCCCCCC(=O)N1CC(=O)C(=C(O)CCCCc2ccccc2)C1=O [28b],2 µg/mL,0.25 µg/mL,2 µg/mL,2 µg/mL,1 µg/mL,0.5 µg/mL,2 µg/mL,2 µg/mL,4 µg/mL,8 µg/mL,2 µg/mL,,,,,,,,,,
CCCCCCC(=O)N1CC(=O)C(=C(O)CCc2ccc(SC)cc2)C1=O [28d],4 µg/mL,0.5 µg/mL,16 µg/mL,8 µg/mL,2 µg/mL,0.5 µg/mL,4 µg/mL,1 µg/mL,32 µg/mL,4 µg/mL,1 µg/mL,,,,,,,,,,
CSCCC1C(=O)C(=C(O)CC23CC4CC(CC(C4)C2)C3)C(=O)N1C(C)=O (stereo not drawn) [31d],16 µg/mL,8 µg/mL,16 µg/mL,32 µg/mL,16 µg/mL,8 µg/mL,8 µg/mL,4 µg/mL,32 µg/mL,32 µg/mL,16 µg/mL,,,,,,,,,,
CSCCC1C(=O)/C(=C(/O)CC(C)(C)CC(=O)OCCC23CC4CC(CC(C4)C2)C3)C(=O)N1C(C)=O (stereo not drawn) [31i],,,,,,,,,,,,,,,,,,,,,MIC (S1; Table 2): 8 µg/mL; MIC (P9; Table 2): 1 µg/mL; MIC (S4; Table 2): 16 µg/mL; MIC ([1]; Table 2): 8 µg/mL; MIC (E2; Table 2): 1 µg/mL; MIC (P1; Table 2): 2 µg/mL; MIC (P9B; Table 2): 4 µg/mL; MIC (H4; Table 2 and its footnote f): 8 µg/mL; MIC (S26; Table 2): > 64 µg/mL; MIC (H3; Table 2): > 64 µg/mL; MIC (E1; Table 2): 2 µg/mL
